Data published in US10239887B2, “Positive allosteric modulators of the muscarinic acetylcholine receptor M4” (Vanderbilt University, priority 2016, dated 2019).
Where a name gives a salt, the structure may show the parent alone. Read-outs that look alike come from different tables or passages of the source.

Target: T1, human mAChR M4 (Homo sapiens, UniProt P08173)
T1 sequence (P08173 1-479): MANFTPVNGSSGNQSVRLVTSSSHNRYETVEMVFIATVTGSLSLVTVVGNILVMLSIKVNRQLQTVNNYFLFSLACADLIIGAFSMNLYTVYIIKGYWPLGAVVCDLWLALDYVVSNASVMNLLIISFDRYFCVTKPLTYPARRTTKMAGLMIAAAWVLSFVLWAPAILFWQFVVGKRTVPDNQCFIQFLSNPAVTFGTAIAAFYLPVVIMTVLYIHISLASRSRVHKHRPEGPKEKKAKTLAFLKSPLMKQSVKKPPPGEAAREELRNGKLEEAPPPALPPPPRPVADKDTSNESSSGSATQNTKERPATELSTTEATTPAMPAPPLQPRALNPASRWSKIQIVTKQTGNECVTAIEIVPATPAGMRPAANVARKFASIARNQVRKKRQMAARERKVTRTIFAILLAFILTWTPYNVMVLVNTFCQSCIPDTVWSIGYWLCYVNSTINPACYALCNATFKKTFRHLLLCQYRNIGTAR
Test: mAChR M4 cell-based functional assay (calcium flux), human M4
Settings: for Emax: % ACh maximum at 30 μM

[1] = Human M4 EC50 (nM), Table 10, calcium flux, PAM activity with EC20 acetylcholine
[2] = Human M4 EC50 (nM), Table 11, calcium flux, PAM activity with EC20 acetylcholine
[3] = Human M4 EC50, CHO-K1 hM4-Gqi5 cells, calcium flux, increase in EC20 acetylcholine response

| EC50 [1] | Emax (Table 10) | SMILES | further results |
| --- | --- | --- | --- |
| 456 nM | 68.7% | Cc1cc(C)c2c(n1)sc1c(N3CC(F)(F)C3)ncnc12 [Compound 198, 4-(3,3-difluoroazetidin-1-yl)-7,9-dimethyl-pyrido[3′,2′:4,5] thieno[3,2-d]pyrimidine] | – |
| 100 nM | 86% | Cc1nnc2sc3c(NCc4ccc(C(=O)NC5CC5)cc4)ncnc3c2c1C [Compound 133, N-cyclopropyl-4-[[(3,4-dimethylpyrimido [4′,5′:4,5]thieno[2,3-c]pyridazin-8-yl)amino]methyl]benzamide] | – |
| 101 nM | 82.1% | CNC(=O)c1ccc(CNc2ncnc3c2sc2nnc(C)c(C)c23)cc1 [Compound 145, 4-[[(3,4-dimethylpyrimido [4′,5′:4,5]thieno[2,3-c]pyridazin-8-yl)amino]methyl]-N-methyl-benzamide] | – |
| 380 nM | 84.8% | Cc1nnc2sc3c(NCc4ccc(C(=O)NC5CCCCC5)cc4)ncnc3c2c1C [Compound 159, N-cyclohexyl-4-[[(3,4-dimethylpyrimido [4′,5′:4,5]thieno[2,3-c]pyridazin-8-yl)amino]methyl]benzamide] | – |
| 1520 nM | 83.8% | Cc1nc2sc3c(N4CC(c5ccncc5)C4)ncnc3c2c(C)c1Cl [Compound 262, 8-chloro-7,9-dimethyl-4-[3-(4-pyridyl)azetidin-1-yl]pyrido[3′,2′:4,5] thieno[3,2-d]pyrimidine dihydrochloride] | – |
| 405 nM | 80% | COc1ccc(CNc2ncnc3c2sc2nnc(Cl)c(C)c23)cc1F [Compound 212, 3-chloro-N-[(3-fluoro-4-methoxy-phenyl)methyl]-4-methyl-pyrimido[4′,5′:4,5] thieno[2,3-c]pyridazin-8-amine] | – |
| 127 nM | 69.4% | Cc1nnc2sc3c(NCc4ccc(C5(O)CCC5)cc4)ncnc3c2c1C [Compound 114, 1-[4-[[(3,4-dimethylpyrimido [4′,5′:4,5]thieno[2,3-c]pyridazin-8-yl)amino]methyl]phenyl]cyclobutanol] | – |
| 845 nM | 53.2% | COc1cc(F)c(CNc2ncnc3c2oc2nnc(C)c(C)c23)c(F)c1 [Compound 310, N-[(2,6-difluoro-4-methoxy-phenyl)methyl]-3,4-dimethyl-pyrimido[4′,5′:4,5] furo[2,3-c]pyridazin-8-amine] | – |
| 288 nM | 84.8% | Cc1nnc2sc3c(NCc4ccc(C(=O)N5CC6(COC6)C5)cc4)ncnc3c2c1C [Compound 124, [4-[[(3,4-dimethylpyrimido [4′,5′:4,5]thieno[2,3-c]pyridazin-8-yl)amino]methyl]phenyl]-(2-oxa-6-azaspiro[3.3]heptan-6-yl)methanone] | – |
| 5580 nM | 56.1% | Cc1c(Cl)cnc2sc3c(NCc4ccc5c(c4)COC5)ncnc3c12 [Compound 234, 8-chloro-N-(1,3-dihydroisobenzofuran-5-ylmethyl)-9-methyl-pyrido [3′,2′:4,5]thieno[3,2-d] pyrimidin-4-amine] | – |
| 885 nM | 63.8% | Cc1c(Cl)cnc2sc3c(N4CCC(F)C4)ncnc3c12 (centres unmarked) [Compound 220, 8-chloro-4-(3-fluoropyrrolidin-1-yl)-9-methyl-pyrido [3′,2′:4,5]thieno[3,2-d] pyrimidine] | – |
| 75.2 nM | 57.8% | Cc1nnc2sc3c(NC4CN(c5ncc(OC(C)C)cn5)C4)ncnc3c2c1C [Compound 89, N-[1-(5-isopropoxypyrimidin-2-yl)azetidin-3-yl]-3,4-dimethyl-pyrimido [4′,5′:4,5]thieno[2,3-c] pyridazin-8-amine] | – |
| 665 nM | 56.2% | Cc1c(Cl)cnc2sc3c(NC4CC4(C)C)ncnc3c12 (centres unmarked) [Compound 227, 8-chloro-N-(2,2-dimethylcyclopropyl)-9-methyl-pyrido[3′,2′:4,5] thieno[3,2-d] pyrimidin-4-amine] | – |

The next lines start with the molecule.

| SMILES | EC50 [1] | Emax (Table 10) | further results |
| --- | --- | --- | --- |
| Cc1cc(C(C)(C)O)ccc1CNc1ncnc2c1sc1nnc(C)c(C)c12 [Compound 335, 2-[4-[[(3,4-dimethylpyrimido [4′,5′:4,5]thieno[2,3-c]pyridazin-8-yl)amino]methyl]-3-methyl-phenyl]propan-2-ol] | – | – | Emax (Table 11): 71.1% |
| Cc1nc2sc3c(N4CC5CC5C4)ncnc3c2c(C)c1Cl (centres unmarked) [Compound 257, 4-(3-azabicyclo[3.1.0]hexan-3-yl)-8-chloro-7,9-dimethyl-pyrido [3′,2′:4,5]thieno[3,2-d] pyrimidine hydrochloride] | 1010 nM | 64.4% | – |
| COCCNC(=O)c1cc(CNc2ncnc3c2sc2nnc(C)c(C)c23)ccc1F [Compound 186, 5-[[(3,4-dimethylpyrimido [4′,5′:4,5]thieno[2,3-c]pyridazin-8-yl)amino]methyl]-2-fluoro-N-(2-methoxyethyl)benzamide] | 687 nM | 86.8% | – |
| Cc1nnc2sc3c(N4CC[C@H](Oc5ccc(C(F)(F)F)nc5)C4)ncnc3c2c1C [Compound 362, 3,4-dimethyl-8-[(3S)-3-[[6-(trifluoromethyl)-3-pyridyl]oxy]pyrrolidin-1-yl] pyrimido[4′,5′:4,5]thieno [2,3-c]pyridazine dihydrochloride] | – | – | EC50 [2]: 519 nM; Emax (Table 11): 75.7% |
| Cc1cc(C)c2c(n1)sc1c(N3CC4CC4C3)ncnc12 (centres unmarked) [Compound 196, 4-(3-azabicyclo [3.1.0]hexan-3-yl)-7,9-dimethyl-pyrido [3′,2′:4,5]thieno[3,2-d] pyrimidine] | 453 nM | 74.5% | – |
| Cc1cc(O[C@@H]2CCN(c3ncnc4c3sc3nnc(C)c(C)c34)C2)ccn1 [Compound 338, 3,4-dimethyl-8-[(3R)-3-[(2-methyl-4-pyridyl)oxy]pyrrolidin-1-yl] pyrimido[4′,5′:4,5] thieno[2,3-c]pyridazine] | – | – | EC50 [2]: 73.4 nM; Emax (Table 11): 74.6% |
| Cc1nnc2sc3c(NC4CN(c5ncc(F)cn5)C4)ncnc3c2c1C [Compound 84, N-[1-(5-fluoropyrimidin-2-yl)azetidin-3-yl]-3,4-dimethyl-pyrimido [4′,5′:4,5]thieno[2,3-c] pyridazin-8-amine] | – | 64.9% | EC50: 27.6 nM |
| Cc1nc2sc3c(NCc4ccc(CN5CCOCC5)cc4)ncnc3c2c(C)c1Cl [Compound 269, 8-chloro-7,9-dimethyl-N-[[4-(morpholinomethyl)phenyl]methyl]pyrido [3′,2′:4,5]thieno[3,2-d] pyrimidin-4-amine dihydrochloride] | 3570 nM | 71.2% | – |
| Cc1nnc2sc3c(NCc4cccc(-n5cccn5)c4)ncnc3c2c1C [Compound 328, 3,4-dimethyl-N-[(3-pyrazol-1-ylphenyl)methyl]pyrimido [4′,5′:4,5]thieno[2,3-c] pyridazin-8-amine] | – | – | EC50 [2]: 1970 nM; Emax (Table 11): 63.6% |
| COCCNC(=O)c1ccc(CNc2ncnc3c2sc2nnc(C)c(C)c23)cc1Cl [Compound 324, 2-chloro-4-[[(3,4-dimethylpyrimido [4′,5′:4,5]thieno[2,3-c]pyridazin-8-yl)amino]methyl]-N-(2-methoxyethyl) benzamide] | – | – | EC50 [2]: 164 nM; Emax (Table 11): 84% |
| Cc1nnc2sc3c(N4CC[C@H](Oc5cnccn5)C4)ncnc3c2c1C [Compound 361, 3,4-dimethyl-8-[(3S)-3-pyrazin-2-yloxypyrrolidin-1-yl]pyrimido[4′,5′:4,5] thieno[2,3-c]pyridazine dihydrochloride] | – | – | EC50 [2]: 1470 nM; Emax (Table 11): 53.9% |
| COc1ccc(CNc2ncnc3c2sc2nnc(C)c(C)c23)cc1F [Compound 27, N-(3-fluoro-4-methoxybenzyl)-3,4-dimethylpyrimido [4′,5′:4,5]thieno[2,3-c] pyridazin-8-amine] | – | – | Emax (Human M4): 62% |
| Cc1nc2sc3c(NCc4ccc(C(C)(C)O)cc4F)ncnc3c2c(C)c1Cl [Compound 279, 2-[4-[[(8-chloro-7,9-dimethyl-pyrido [3′,2′:4,5]thieno[3,2-d]pyrimidin-4-yl)amino]methyl]-3-fluoro-phenyl] propan-2-ol] | 6020 nM | 49.4% | – |
| Cc1nnc2sc3c(N4CC(Oc5ccc(C#N)nc5)C4)ncnc3c2c1C [Compound 355, 5-[1-(3,4-dimethylpyrimido[4′,5′:4,5]thieno[2,3-c]pyridazin-8-yl)azetidin-3-yl]oxypyridine-2-carbonitrile dihydrochloride] | – | – | EC50 [2]: 1310 nM; Emax (Table 11): 49.2% |
| CC(=O)N1CC(Nc2ncnc3c2sc2nnc(C)c(C)c23)C1 [Compound 35, 1-(3-((3,4-dimethylpyrimido [4′,5′:4,5]thieno[2,3-c]pyridazin-8-yl)amino)azetidin-1-yl)ethan-1-one] | – | – | Emax (Human M4): 79%; EC50 [3]: 53 nM |
| Cc1nnc2sc3c(NCc4ccc5c(c4)COC5(C)C)ncnc3c2c1C [Compound 372, N-[(1,1-dimethyl-3H-isobenzofuran-5-yl)methyl]-3,4-dimethyl-pyrimido[4′,5′:4,5]thieno [2,3-c]pyridazin-8-amine] | – | – | Emax (Table 11): 94.7% |
| Cc1nnc2sc3c(NC4CCN(c5ccccc5)C4)ncnc3c2c1C (centres unmarked) [Compound 23, 3,4-dimethyl-N-(1-phenylpyrrolidin-3-yl) pyrimido[4′,5′:4,5]thieno [2,3-c]pyridazin-8-amine] | – | – | Emax (Human M4): 27%; EC50 [3]: ≥ 10000 nM |
| Cc1nnc2oc3c(NCc4ccc(C(C)(C)O)cc4)ncnc3c2c1C [Compound 65, 2-[4-[[(3,4-dimethylpyrimido[4′,5′:4,5]furo[2,3-c]pyridazin-8-yl)amino]methyl]phenyl]propan-2-ol] | – | – | Emax (Human M4): 61.2%; EC50 [3]: 2290 nM |
